# Assays:
# human M4 receptor = molecular target: T1, human M4 receptor (Homo sapiens, UniProt P08173); test: M4 GTPγS PAM assay; assay type: biochemical; details: CHO-K1 membranes expressing human M4, with EC20 acetylcholine (40 nM)
# T1 construct: expressed in transfected cells
# T1 sequence (P08173 1-479): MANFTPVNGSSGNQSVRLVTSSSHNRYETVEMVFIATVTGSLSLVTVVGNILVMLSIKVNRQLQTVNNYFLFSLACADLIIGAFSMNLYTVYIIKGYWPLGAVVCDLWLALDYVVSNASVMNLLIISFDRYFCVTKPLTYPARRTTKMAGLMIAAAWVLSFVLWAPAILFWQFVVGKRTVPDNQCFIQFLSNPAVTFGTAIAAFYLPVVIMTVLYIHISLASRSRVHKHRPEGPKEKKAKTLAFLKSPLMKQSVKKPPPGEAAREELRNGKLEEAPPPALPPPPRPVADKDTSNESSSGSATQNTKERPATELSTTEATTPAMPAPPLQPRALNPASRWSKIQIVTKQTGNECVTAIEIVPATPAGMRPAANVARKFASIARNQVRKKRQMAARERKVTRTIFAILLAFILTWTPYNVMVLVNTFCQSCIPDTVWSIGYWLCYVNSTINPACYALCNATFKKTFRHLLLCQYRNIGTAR
# Protocol: The M4 GTPγS PAM method was used. Membranes were prepared for GTPgS binding assays from CHO-K1 cells stably expressing human M4 receptor. Briefly, cells were grown in 5-layer cell culture flasks. Cells were washed with 50 mL of PBS and then dissociated with 0.05% trypsin. Dissociated cells were then collected by centrifugation at 650×g for 8 minutes at 4° C. Pellets were washed again in PBS by centrifugation and resuspended in 30 mL of 20 mM HEPES, 10 mM EDTA, pH 7.4. After sitting on ice for 30 min, membranes were collected by centrifugation at 50000×g for 15′ at 4° C., resuspended in 30 mL of 20 mM HEPES, 0.1 mM EDTA, pH 7.4 and collected again by centrifugation. Pellets were then washed twice by centrifugation in 30 mL of 20 mM HEPES, pH 7.4, and stored at −80° C. until the day of the assay. On the day of the assay, pellets were thawed on ice and resuspended in 1 mL of 20 mM HEPES, pH 7.4, 10 mM MgCl2, 100 mM NaCl using dounce homogenization. Membrane protein concentration is determined by BCA protein assay (Promega, Madison, WI) according to Promega guidelines.
# On the day of the assay, serial dilutions of test PAM compounds were brought up in assay buffer (20 mM HEPES, 10 mM MgCl2, 100 mM NaCl) at 4× final assay concentration. […] of membrane homogenates (containing […] of membrane protein) were prepared in assay buffer supplemented with GDP at 4× final assay concentration (final assay concentration of GDP is 5 uM for M2 and 0.1 uM for M4) and dispensed into 96 well polypropylene, U-bottom Greiner plates. […] of vehicle or test PAM compound at 4× of final assay concentration diluted in the assay buffer were added to membrane and plates are incubated for 10-15 minutes at room temperature with gentle shaking. Then, […] of EC20 acetylcholine in assay buffer at 4× final assay concentration was added to assay plates (EC20 final assay concentrations was 40 nM for human M4).
# Plates were then incubated, with shaking, for an additional 10-15 minutes. 25 mL of 0.4 nM ^35S-GTP (Perkin Elmer, Waltham, MA) in assay buffer was added to assay mixtures. The binding reaction is left on the shaker for 1 hour at room temperature. Membranes in assay reactions were then transferred to GF/C filter plates (Unifilter, Perkin Elmer) and washed three times using a FilterMate Harvester (Perkin Elmer) with cold assay buffer containing no GDP. Filter plates were then dried at 40° C. overnight followed by the addition of […] of Beta Plate Scintillation liquid. Plates are top and bottom sealed before being read on TopCount scintillation counter (Perkin Elmer, Waltham, MA).
# hM4 receptors = molecular target: T2, hM4 receptors (Homo sapiens, UniProt P08173); test: Human M4 PAM pERK assay; assay type: cell-based; details: PAM mode
# T2 construct: expressed in transfected cells; host or cells: CHO cells
# T2 sequence (P08173 1-479): T1 sequence (P08173 1-479)
# Protocol: (§1) Chinese hamster ovary (CHO) cells expressing either hM4 or rM4 receptors were frozen in assay ready vials (5×10^6 cells/vial) after bulking-up in culture. The day before an assay, vial(s) were thawed and cells seeded in 384 well white proxiplates at 1000/well for hM4 cells and at 2000/well for rM4 cells, in 10 μL of growth media (Hams/F12 with glutamax and 10% FCS) and incubated overnight at 37° C./5% CO2.
# (§2) On the following morning, the growth media was removed by ‘flicking out’ over a bin, patting the inverted plate onto tissue, and then replacing with 10 μL of wash media (Hams/F12 with glutamax and 8 mM HEPES, NB: serum free). Then, the wash media was removed in the same way and replaced with 8 μL/well of the serum free media. Plates were then re-incubated for a further 4 hours at 37° C./5% CO2.
# (§3) Compounds for testing were solubilized to 10 mM in DMSO and compound addition plates, consisting of ten-point concentration response curves (CRC) in duplicate points (10 μM top concentration, […]), were prepared by acoustic dispensing and the compound management group.
# (§4) After the 4-hour incubation in serum free media, a 4 μL aliquot of the 3× compound solution containing an EC20 of acetylcholine (10 nM final concentration) was added to the cell plate using a 384 well plate to plate transfer. Then, the plate lid was replaced, and the cells incubated for 5 mins at 37° C./5% CO2. Following this final incubation, all cellular processes were stopped by the addition of 4 μL/well of lysis and blocking buffer and plates were incubated for 30 minutes at RT on an orbital shaker (gentle setting). Then, a final addition of 4 μL/well of antibody detection mix, containing both the Europium-Cryptate (donor) and d2 (acceptor) tagged detection components, was added followed by a further 2-hour incubation at RT, and then the plate was read using a TR-FRET (time resolved fluorescence resonance energy transfer) based protocol.
# rM4 receptors = molecular target: T3, rM4 receptors (Rattus norvegicus, UniProt P08485); test: Rat M4 PAM pERK assay; assay type: cell-based; details: PAM mode
# T3 construct: expressed in transfected cells; host or cells: CHO cells
# T3 sequence (P08485 1-478): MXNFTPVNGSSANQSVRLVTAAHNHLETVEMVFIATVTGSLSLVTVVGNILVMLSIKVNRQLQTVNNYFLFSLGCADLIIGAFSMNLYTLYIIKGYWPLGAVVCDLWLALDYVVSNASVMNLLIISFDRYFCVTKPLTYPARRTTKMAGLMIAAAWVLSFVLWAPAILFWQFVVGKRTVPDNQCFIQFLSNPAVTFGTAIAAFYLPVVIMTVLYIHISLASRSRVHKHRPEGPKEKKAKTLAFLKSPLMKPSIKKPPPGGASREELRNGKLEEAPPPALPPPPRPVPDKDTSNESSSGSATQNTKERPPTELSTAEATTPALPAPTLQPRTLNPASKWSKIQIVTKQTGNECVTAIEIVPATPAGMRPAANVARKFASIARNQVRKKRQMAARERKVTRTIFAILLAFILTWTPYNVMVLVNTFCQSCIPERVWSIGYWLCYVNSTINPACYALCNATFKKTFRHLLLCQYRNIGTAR
# Protocol: as §1, §2, §3, §4
Compound,EC50 (human M4 receptor) [nM],EC50 (hM4 receptors) [nM],EC50 (rM4 receptors) [nM]
"COc1c2c(n(C)c(=O)c1Cl)CN(C(=O)c1cnn(C(F)(F)F)c1)C2C (single isomer, unassigned) [Compound I-75]",> 2000,> 2000,> 2000
"COc1cc(=O)n(C)c2c1C(C)N(C(=O)c1cnn(C(F)(F)F)c1)C2 (single isomer, unassigned) [Compound I-81]",> 2000,> 2000,> 2000
"COc1c2c(n(C)c(=O)c1C)CN(C(=O)c1cnn(C(F)(F)F)c1)C2C (single isomer, unassigned) [Compound I-84]",> 2000,500 to 2000,> 2000
"Cc1cc(=O)n(C)c2c1C(C)N(C(=O)c1cnn(C(F)(F)F)c1)C2 (single isomer, unassigned) [Compound I-92, 1,4,5-Trimethyl-6-(1-(trifluoromethyl)-1H-pyrazole-4-carbonyl)-1,5,6,7-tetrahydro-2H-pyrrolo[3,4-b]pyridin-2-one]",> 2000,> 2000,> 2000
"Cc1cc(=O)n(C)c2c1C(C)N(C(=O)c1cnc(C(F)(F)F)s1)C2 (single isomer, unassigned) [Compound I-94]",> 2000,> 2000,> 2000
"Cc1cc(=O)n(C)c2c1C(C)N(C(=O)c1cnc(C3CC3)s1)C2 (single isomer, unassigned) [Compound I-96]",> 2000,> 2000,> 2000
"Cc1cc(=O)n(C)c2c1CN(C(=O)c1cnn(C)c1)C2C (single isomer, unassigned) [Compound I-106]",> 2000,> 2000,–
Cc1c2c(n(C)c(=O)c1Cl)CN(C(=O)c1cn(C)c(C)n1)C2 [Compound I-11],> 2000,> 2000,–
Cc1c2c(n(C)c(=O)c1Cl)CN(C(=O)c1cncc(C(F)(F)F)c1)C2 [Compound I-48],> 2000,> 2000,–
"COc1c2c(n(C)c(=O)c1C)CN(C(=O)c1cnn(CC(F)(F)F)c1)C2 [Compound I-85, 4-Methoxy-1,3-dimethyl-6-(1-(2,2,2-trifluoroethyl)-1H-pyrazole-4-carbonyl)-1,5,6,7-tetrahydro-2H-pyrrolo[3,4-b]pyridin-2-one]",–,500 to 2000,> 2000
COc1c2c(n(C)c(=O)c1C)CN(C(=O)c1cnc(CC3CC3)s1)C2 [Compound I-86],–,100 to 500,> 2000
CSc1c2c(n(C)c(=O)c1C)CN(C(=O)c1cnc(CC3CC3)s1)C2 [Compound I-91],–,100 to 500,> 2000
"Cc1cc(=O)n(C)c2c1CN(C(=O)c1cnn(C)c1)C2C (stereo not drawn) [Compound I-105, 1,4,7-Trimethyl-6-(1-methyl-1H-pyrazole-4-carbonyl)-1,5,6,7-tetrahydro-2H-pyrrolo[3,4-b]pyridin-2-one]",> 2000,> 2000,–
"Cc1c2c(n(C)c(=O)c1C(F)(F)F)CN(C(=O)c1cnn(C)c1)C2 [Compound I-110, 1,4-Dimethyl-6-(1-methyl-1H-pyrazole-4-carbonyl)-3-(trifluoromethyl)-1,5,6,7-tetrahydro-2H-pyrrolo[3,4-b]pyridin-2-one]",–,100 to 500,> 2000
"Cc1c2c(n(C)c(=O)c1C)CN(C(=O)c1ccc3nc(C4CC4)sc3c1)C2 [Compound I-111, 6-(2-Cyclopropylbenzo[d]thiazole-6-carbonyl)-1,3,4-trimethyl-1,5,6,7-tetrahydro-2H-pyrrolo[3,4-b]pyridin-2-one]",–,> 2000,100 to 500

# Continued, values first:
EC50 (human M4 receptor) [nM],EC50 (hM4 receptors) [nM],EC50 (rM4 receptors) [nM],Compound
100 to 500,100 to 500,500 to 2000,"COc1c2c(n(C)c(=O)c1C)CN(C(=O)c1cnn(C(F)(F)F)c1)C2C (racemic) [Compound I-82, 4-Methoxy-1,3,5-trimethyl-6-(1-(trifluoromethyl)-1H-pyrazole-4-carbonyl)-1,5,6,7-tetrahydro-2H-pyrrolo[3,4-b]pyridin-2-one]"
500 to 2000,< 100,500 to 2000,"COc1c2c(n(C)c(=O)c1Cl)CN(C(=O)c1cnn(C(F)(F)F)c1)C2C (single isomer, unassigned) [Compound I-74]"
> 2000,100 to 500,> 2000,"COc1cc(=O)n(C)c2c1C(C)N(C(=O)c1cnn(C(F)(F)F)c1)C2 (single isomer, unassigned) [Compound I-80]"
100 to 500,< 100,500 to 2000,"COc1c2c(n(C)c(=O)c1C)CN(C(=O)c1cnn(C(F)(F)F)c1)C2C (single isomer, unassigned) [Compound I-83]"
500 to 2000,100 to 500,> 2000,"Cc1cc(=O)n(C)c2c1C(C)N(C(=O)c1cnc(C(F)(F)F)s1)C2 (single isomer, unassigned) [Compound I-95]"
–,< 100,> 2000,"CCOc1c2c(n(C)c(=O)c1C)CN(C(=O)c1cnn(C(F)(F)F)c1)C2 [Compound I-88, 4-Ethoxy-1,3-dimethyl-6-(1-(trifluoromethyl)-1H-pyrazole-4-carbonyl)-1,5,6,7-tetrahydro-2H-pyrrolo[3,4-b]pyridin-2-one]"
–,< 100,> 2000,Cc1cc(=O)n(C)c2c1C(C)N(C(=O)c1cnn(C(F)(F)F)c1)C2 (stereo not drawn) [Compound I-93]
–,< 100,100 to 500,"Cc1c2c(n(C)c(=O)c1F)CN(C(=O)c1cnn(C(F)(F)F)c1)[C@@H]2C [Compound I-114, (R)-3-Fluoro-1,4,5-trimethyl-6-(1-(trifluoromethyl)-1H-pyrazole-4-carbonyl)-1,5,6,7-tetrahydro-2H-pyrrolo[3,4-b]pyridin-2-one]"

# From US12421242B2, “Substituted tetrahydropyrrolo-pyridinone compounds and their use in treating medical conditions” (Karuna Therapeutics, Inc., priority 2022, dated 2025)
